Measurements reported in US20210040153A1, “OLIGOPEPTIDE HAVING DENGUE VIRUS REPLICATION INHIBITION FUNCTION AND APPLICATION THEREOF” (priority 2018, published 2021).

Legend:
[1] = biological target: T1, NS5 (Dengue virus type 2, UniProt P14340); test: affinity to full-length DENV NS5 recombinant protein (phage display peptide library screening); type: binding, DENV-2
T1 construct: His6 (C); made in house; host or cells: E. coli BL21 (DE3), pET 30a/NS5
Method: 1) The protein solution is diluted with 0.1 M NaHCO3 to 100 μg/mL. Each time, 0.7 mL of the protein solution is added dropwise to a (φ35 mm polyethylene culture dish, which is gently shaken to soak the dish, which is then coated overnight at 4° C., The coating solution is aspirated and discarded; 2 mL of a blocking solution is added, and left at 4° C. for 2 h; the blocking solution is discarded, and the plate is tap-dried; the plate is washed 6 times with TBST (TBS+0,1%[V/V]Tween−20), and tap-dried each time. […]
3) The eluted phage is added to 10 mL of the host bacterial Tet-LB culture solution (OD600 to 0.5) and then amplified; after 5 hours of culture, the culture solution is collected to purify the phage, and used for the next round of screening after the titer is measured. […]

[2] = tested on: DENV 2; test: cell poisoning experiments: inhibition of DENV 2 replication; type: cell-based, dengue virus
[3] = tested on: dengue virus type 1; test: inhibition of replication of dengue virus type 1; type: cell-based
[4] = tested on: dengue virus type 3; test: inhibition of replication of dengue virus type 3; type: cell-based
[5] = tested on: dengue virus type 4; test: inhibition of replication of dengue virus type 4; type: cell-based
[6] = tested on: dengue virus; test: inhibition of dengue virus replication (serotype not given); type: cell-based; conditions: serotype not stated

KHGHHRH [Lys-His-Gly-His-His-Arg-His]
affinity for NS5 [1]: high specific affinity
inhibitory effect on the replication of DENV 2 virus [2]: significant inhibitory effect
inhibitory effect on the replication of dengue virus type 1 [3]: significant inhibitory effect
inhibitory effect on the replication of dengue virus type 3 [4]: significant inhibitory effect
inhibitory effect on the replication of dengue virus type 4 [5]: significant inhibitory effect
inhibitory effect on dengue virus replication [6]: highly effective inhibitory effect
inhibitory effect on dengue virus replication ([6]; listed as oligopeptide): effectively inhibit
